For series [1], the target named is T1, Amine oxidase [flavin-containing] B (Homo sapiens, UniProt P27338).
T1 sequence (P27338 whole entry): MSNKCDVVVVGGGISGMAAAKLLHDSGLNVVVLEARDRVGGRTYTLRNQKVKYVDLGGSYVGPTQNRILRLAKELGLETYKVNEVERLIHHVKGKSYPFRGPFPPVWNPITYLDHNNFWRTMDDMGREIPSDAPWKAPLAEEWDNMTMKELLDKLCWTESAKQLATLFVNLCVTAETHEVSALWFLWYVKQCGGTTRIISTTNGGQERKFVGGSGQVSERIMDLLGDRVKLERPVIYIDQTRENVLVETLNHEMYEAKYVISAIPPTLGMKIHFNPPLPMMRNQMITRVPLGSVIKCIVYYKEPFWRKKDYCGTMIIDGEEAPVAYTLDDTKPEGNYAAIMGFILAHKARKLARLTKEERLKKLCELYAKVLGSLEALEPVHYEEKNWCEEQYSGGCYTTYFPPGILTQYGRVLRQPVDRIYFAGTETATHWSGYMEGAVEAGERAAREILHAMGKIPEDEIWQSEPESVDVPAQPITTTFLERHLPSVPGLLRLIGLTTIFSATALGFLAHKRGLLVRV
Nature of the series: Inhibition of MAO-B assessed as inhibition of kyneuramine conversion to 4-hydroxyquinoline after 20 mins by fluorescence assay.

In series [2] the target is T2, Amine oxidase [flavin-containing] A (Homo sapiens, UniProt P21397).
T2 sequence (P21397 whole entry): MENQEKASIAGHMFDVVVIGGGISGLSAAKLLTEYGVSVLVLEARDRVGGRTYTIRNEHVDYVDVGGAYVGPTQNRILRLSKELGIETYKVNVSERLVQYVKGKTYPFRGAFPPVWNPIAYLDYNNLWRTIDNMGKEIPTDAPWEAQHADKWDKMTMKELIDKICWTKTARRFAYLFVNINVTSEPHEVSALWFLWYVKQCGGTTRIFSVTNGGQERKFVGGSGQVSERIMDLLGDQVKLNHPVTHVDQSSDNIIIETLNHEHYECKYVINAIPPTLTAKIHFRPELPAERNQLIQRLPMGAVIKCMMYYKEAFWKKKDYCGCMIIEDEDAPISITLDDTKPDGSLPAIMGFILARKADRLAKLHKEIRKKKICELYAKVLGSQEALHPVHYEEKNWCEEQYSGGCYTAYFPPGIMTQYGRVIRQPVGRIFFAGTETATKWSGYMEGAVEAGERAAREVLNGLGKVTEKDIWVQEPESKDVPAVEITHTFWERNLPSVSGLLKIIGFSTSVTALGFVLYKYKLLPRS
Nature of the series: Inhibition of MAO-A assessed as inhibition of kyneuramine conversion to 4-hydroxyquinoline after 20 mins by fluorescence assay.

Series [3] deals with T3, Albumin (Bos taurus, UniProt P02769). Nature of the series: Binding affinity to bovine serum albumin at 16 uM by fluorescence assay. The series is classed as ADME. Conditions: cattle, isolated protein.
T3 sequence (P02769 whole entry): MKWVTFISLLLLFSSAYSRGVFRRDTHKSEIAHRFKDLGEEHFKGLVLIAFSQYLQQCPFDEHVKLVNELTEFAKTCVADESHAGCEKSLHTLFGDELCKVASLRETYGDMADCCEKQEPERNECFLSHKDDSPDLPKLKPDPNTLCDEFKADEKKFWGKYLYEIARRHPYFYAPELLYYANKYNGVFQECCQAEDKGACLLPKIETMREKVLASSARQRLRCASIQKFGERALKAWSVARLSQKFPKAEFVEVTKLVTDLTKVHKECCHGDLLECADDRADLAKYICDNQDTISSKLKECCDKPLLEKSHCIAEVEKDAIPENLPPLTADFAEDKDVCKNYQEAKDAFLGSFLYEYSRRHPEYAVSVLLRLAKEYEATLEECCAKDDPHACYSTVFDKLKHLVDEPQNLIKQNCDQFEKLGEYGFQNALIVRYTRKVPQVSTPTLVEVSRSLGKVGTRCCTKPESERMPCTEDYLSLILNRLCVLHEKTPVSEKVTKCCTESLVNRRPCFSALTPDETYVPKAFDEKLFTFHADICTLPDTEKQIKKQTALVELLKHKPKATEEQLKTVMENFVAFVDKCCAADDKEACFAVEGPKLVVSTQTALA
Series [4] deals with T3, Albumin. Nature of the series: Binding affinity to bovine serum albumin at 8.9 uM by fluorescence assay. Conditions: cattle, isolated protein. The series is classed as ADME.

Here are results for ten molecules from ChEMBL document CHEMBL2203207, “Inhibition of monoamine oxidase by derivatives of piperine, an alkaloid from the pepper plant Piper nigrum, for possible use in Parkinson's disease” (Bioorg Med Chem Lett, 2012).

The IC50 is the midpoint of a concentration-inhibition curve. As to `O=C(/C=C/c1ccc2c(c1)OCO2)N1CCOCC1`, the 50% inhibitory concentration (IC50) was 6.39 µM in series [1] and above 100 µM in series [2].

Take `S=C(c1ccc2c(c1)OCO2)N1CCCCC1`: the IC50 in series [1] is 15.4 µM; in series [2] it was above 100 µM.

For `O=C(/C=C/c1ccc2c(c1)OCO2)NC1CCCC1`, the IC50 was 1.13 µM in series [1] and above 100 µM in series [2].

Take `O=C(CCN1CCCCC1)c1ccc2c(c1)OCO2`: the values for the IC50 in series [1] and in series [2] were 3.43 µM and above 100 µM, respectively.

For `O=C(CN1CCCCC1)c1ccc2c(c1)OCO2`, the half-inhibitory concentration (IC50) in series [1] was 3.18 µM; in series [2], above 100 µM.

With `O=C(/C=C/c1ccc2c(c1)OCO2)NC1CCCCC1`, the IC50 was 0.666 µM in series [1] and above 100 µM in series [2].

Regarding `CC1CCN(C(=O)/C=C/c2ccc3c(c2)OCO3)CC1`, the results for the half-inhibitory concentration (IC50) in series [1] and in series [2] were 0.497 µM and above 100 µM, respectively. In series [3], this molecule came in with an Activity of 50%.

Turning to `O=C(/C=C/c1ccc2c(c1)OCO2)N1CCCC1`, the 50% inhibitory concentration (IC50) in series [1] is 4.89 µM; in series [2] it was above 100 µM.

Consider `O=C(c1ccc2c(c1)OCO2)N1CCCCCC1`, for which the IC50 in series [1] and in series [2] was above 100 µM in each case.

In the case of `O=C(/C=C/C=C/c1ccc2c(c1)OCO2)N1CCCCC1` [PIPERINE], in series [4], the Activity came out at 50%. The IC50 in series [1] turned out to be 0.483 µM; in series [2], 59 µM.
